Experimental findings from patent US10989721B2, “Additive channels” (Emulate Inc., priority 2016, dated 2021) are described below.

What all share (format): cell-based, human
One series has as its system fibrin. The series is described as follows: Vessel-On-Chip blood perfusion: fibrin deposition by fluorescent fibrinogen imaging. As to conditions: for fibrin deposition on the endothelium compared to untreated blood: hu5C8 240 μg/mL, sCD40L 10 ng/ml, alone or combined, 4 donors, 60 μl/minute. The procedure: (§1) Briefly, human blood was drawn in citrate buffer and used within 4 hours. Platelets were stained using fluorescently labeled non-blocking antibodies for the platelet surface marker CD41 and low dosages of fluorescent fibrinogen were added in order to visualize fibrin deposition. Blood was re-calcified in order to re-establish the full coagulation potential, then introduced in the biomimetic vessel-on-chip from the main inlet (embodiments of inlets shown in FIG. 18A-1, FIG. 18A-2 and FIG. 19C). The outlet of the chip was connected to a pulling syringe pump with a system of tubing and connectors made of medical grade silicon that excludes any metal components or potential causes of platelet activation (FIG. 5A).
(§2) After 14 minutes of perfusion, the flow was interrupted and the chips were immediately imaged via fluorescence microscopy (FIG. 18C and FIG. 19D). In healthy conditions, endothelial cells will provide an antithrombotic surface where blood can flow smoothly, and indeed we detected minimal platelet adhesion or fibrin deposition in our vessel-on-chip after blood perfusion in control conditions, FIG. 18C, Blood.
Cell-monolayer integrity: Transmission light microscopy was routinely used to assess cell-monolayer integrity prior to each experiment. Before every experiment, each one of the endothelialized channels was inspected via light microscopy. Samples showing any sign of discontinuity in the endothelium were discarded. Vascular leakage assay as test for tissue integrity: The ability of cells to form a confluent monolayer was monitored for one week measuring vascular leakage of dextran (ThermoFisher). In order to measure vascular leakage the vascular channel was perfused with cell culture medium containing fluorescent dextran-cascade blue (3 kDa, ThermoFisher). The apical compartment was perfused with plain medium (without FBS). At various time points, the effluent from the chip was collected, and the relative fluorescence of the top and bottom compartments were measured using a standard plate reader. […] TNF-alpha Stimulation: In some experiment endothelial cells were stimulate with 50 ng/ml of TNF (Sigma) for 6 hours in order to induce vascular inflammation before blood perfusion. Experiments with Blood: Blood Samples And Endothelium: Citrated human blood (Research Blood Components, Cambridge, Mass.) was used within 4 hours of a blood draw in order to minimize pre-analytical effects on platelet function. Before every experiment, each one of the endothelialized channels (i.e. microchannels having an endothelial cell layer) was inspected via light microscopy. Samples showing any sign of discontinuity in the endothelium were discarded. […] USA) was at room temperature for 20 minutes. […]

The test system of another series is platelets. The series is described as follows: Vessel-On-Chip blood perfusion: platelet coverage/aggregation by fluorescence imaging (CD41 label). As to conditions: for platelet aggregate formation compared to untreated blood: hu5C8 240 μg/mL, sCD40L 10 ng/ml, alone or combined, 4 donors, 60 μl/minute. The procedure: as §1, §2
Cell-monolayer integrity: Transmission light microscopy was routinely used to assess cell-monolayer integrity prior to each experiment. Before every experiment, each one of the endothelialized channels was inspected via light microscopy. Samples showing any sign of discontinuity in the endothelium were discarded. Vascular leakage assay as test for tissue integrity: The ability of cells to form a confluent monolayer was monitored for one week measuring vascular leakage of dextran (ThermoFisher). In order to measure vascular leakage the vascular channel was perfused with cell culture medium containing fluorescent dextran-cascade blue (3 kDa, ThermoFisher). The apical compartment was perfused with plain medium (without FBS). At various time points, the effluent from the chip was collected, and the relative fluorescence of the top and bottom compartments were measured using a standard plate reader. […] TNF-alpha Stimulation: In some experiment endothelial cells were stimulate with 50 ng/ml of TNF (Sigma) for 6 hours in order to induce vascular inflammation before blood perfusion. Experiments with Blood: Blood Samples And Endothelium: Citrated human blood (Research Blood Components, Cambridge, Mass.) was used within 4 hours of a blood draw in order to minimize pre-analytical effects on platelet function. Before every experiment, each one of the endothelialized channels (i.e. microchannels having an endothelial cell layer) was inspected via light microscopy. Samples showing any sign of discontinuity in the endothelium were discarded. […] USA) was at room temperature for 20 minutes. Cloning, Expression and Purification: Generation of IgG2σ was previously described (Vafa, O. et al. An engineered Fc variant of an IgG eliminates all immune effector functions via structural perturbations. Methods 65:114-126 (2014)). 5c8 human IgG1 and human IgG2-Sigma Fc variants were produced in Sino Biological Inc. Gene fragments encoding the 5c8 heavy and light chains were synthesized and cloned into mammalian expression vectors. DNA was produced and used in transient transfections with HEK293. Antibodies were purified using Protein A affinity chromatography and formulated in phosphate-buffered saline (DPBS), pH 7.4. Blood Pre-treatment and Perfusion: Formation of IC (preformed IC): Hu5C8, IgG2σ (control) (both provided by Janssen or provided as described herein) For studies with preformed IC, Hu5C8 or IgG2σ as an isotype control were combined with sCD40L (Tonbo Biosciences, San Diego, Calif.) in PBS, in a ratio of 1 molecule of sCD40L to 3000 molecules of antibody. After 20 minutes incubation at room temperature, the solution was diluted in a blood sample to reach the final concentration of 240 μg/ml (Hu5C8) and 10 ng/ml (sCD40L). […]

The subject of a further series is re-calcified blood. The series is described as follows: On-chip anticoagulation of outflowing re-calcified blood through the anticoagulant port. As to conditions: sodium citrate introduced through the anticoagulant port next to the outflow port. An excerpt: In order to functionally test the system, re-calcified blood was perfused through the inlet while anticoagulant, e.g. citrate buffer, was introduced online from the port situated next to the outflow port. Thus, blood obtained from the effluent of chips equipped with the anticoagulant port or without anticoagulant port were compared (FIG. 6). From a qualitative point of view the difference was striking.
In order to functionally test the additive channel (i.e. microfluidic chamber(s)) attached to the outflow port of a Vessel-On-Chip, re-calcified blood was perfused through the inlet port while citrate was introduced online from a port situated next to the outflow port, flowing through the additive channel. Thus, blood obtained from the effluent of chips equipped with the anticoagulant port (additive channel) or without anticoagulant port were compared (FIG. 6). From a qualitative point of view the difference was striking.

In the next series the test system is ICAM1. The series is described as follows: ICAM1 immunostaining of endothelium on-chip. As to conditions: TNF-α 50 ng/ml, 6 hours. From the text: ICAM1 is shown with examples identified by white arrows. One example of a DAN stained nuclei is shown inside of a white circle.
Diverse structural characteristics of blood clots induced by the two experimental stimuli were captured via scanning electron microscopy (SEM) as colored images in FIG. 18D.

The subject of series [1] is thrombin anti-thrombin complex (TAT). The series is described as follows: Thrombin anti-thrombin (TAT) ELISA in plasma from chip effluent. As to conditions: outflow samples; TNF-α pre-treatment of endothelium, or sCollagen or hu5C8/sCD40L in blood before perfusion. The procedure: Thrombin converts fibrinogen into fibrin during clot formation, and anti-thrombin plays a role in maintaining homeostasis by inhibiting the effect of thrombin. Formation of TAT in the microdevice confirms that local and intrinsic generation of thrombin, a potent platelet agonist, occurs in the model and that counter regulatory mechanisms for coagulation are retained. Thus, blood sampled from the Vessel-On-Chip was analyzed for thrombin anti-thrombin complex (TAT), an accepted clinical biomarker for procoagulation^48,49. […] An enzyme-linked immunosorbent assay (ELISA) was used to quantify the thrombin anti-thrombin complex (TAT).
Thrombin-Anti Thrombin (TAT) measurement via ELISA: Thrombin Anti-Thrombin (TAT) levels were analyzed in plasma from blood flowing out of the chip device by removing a sample from the outflow port. Thus TAT levels were evaluated in sample effluents collected from the outflow port of the chip using the Human TAT ELISA Kit (Siemens Healthineers) according to the user manual.
Blood sampled from the Vessel-On-Chip outflow port was analyzed for thrombin anti-thrombin complex (TAT), a factor released upon activation of the coagulation cascade and one of the biomarkers associated with thrombotic events occurring in patients affected with deep vein thrombosis (DVT) or SLE^45,46. […]
In general terms: In an ELISA, binding on a coated surface is turned into a signal by an enzyme label.

Series [2] concerns hu5C8-mediated thrombosis. The series is described as follows: hu5C8-mediated thrombosis on-chip, FcγRIIa dependence (platelet coverage, fibrin deposition, TAT). As to conditions: with sCD40L 10 ng/ml, IV.3 1 μg/ml pre-block of FcγRIIa, or IgG2σ variant in place of hu5C8. From the text: Recent studies conducted on humanized mice expressing the human Fcγ receptors (FCGR2A) have shown that this receptor plays a role in thrombosis leading to the IC-mediated toxicity^12,16,21. […] In order to investigate if the IC5c8-induced thrombosis that we observed in our vessel-on-chip system also relies on an Fc-mediated mechanism, we used two different tool molecules: IgG2σ and IV.3 (FIG. 25A). The IgG2σ variant of hu5C8 has an engineered Fe region^48 that eliminates affinity for the FcγRIIa, while the monoclonal antibody IV.3 is a blocking antibody binding to FcγRIIa. Briefly, equimolar concentrations of IgG2σ or hu5c8 were incubated with 10 ng/ml of sCD40L for 20 minutes to form ICIgG2σ or IC5c8, respectively.
Some of the blood samples were treated with IV.3 (1 μg/ml) for 10 minutes to block the FcγRIIa, and then incubated for 20 more minutes with IC5c8. Finally, blood alone (control) or blood incubated with IC5c8, ICIgG2σ or IV.3 was perfused through the biomimetic microfluidic-on-chip for about 10 minutes. We tested 15 donors and all the tested conditions described above were tested in duplicates and analyzed as percentage of platelet coverage based on fluorescence microscopic imaging (FIG. 25B). Five of the donors were also tested for fibrin deposition (FIG. 25C). Finally, effluents plasma obtained from a total of 7 of the donors (including the 5 mentioned before) were used to assess TAT via ELISA (FIG. 25D). […]
Blood from several human donors were aliquoted into groups for the following treatments: controls (PBS), sCD40L, combined hu5C8/sCD40L, combined hu5C8 (IgG2σ)/sCD40L combined, and combined hu5C8/sCD40L/IV.3. Each condition was tested with a minimum of 3 donors to a maximum of 15 donors, and all conditions were tested in duplicates and analyzed for platelet coverage (FIG. 25B), fibrin deposition (FIG. 25C), or increased formation of TAT measured in the eluates (FIG. 25D). […]

[3] abbreviates: TNF-α 50 ng/ml 6 hours endothelial pre-treatment or sCollagen 10 μg/ml in blood, vs blood alone.

“Also recorded” adds a separate entry of the source. Structures can show the parent of a compound that is named as a salt. Positions of bridges follow the written chain, without caps; N, C: chain ends. Non-standard residues stand in square brackets, D forms with d. Residues, ends and D or L forms follow the SMILES beside them. hArg = N=C(N)NCCCC[C@H](N)C(=O)O; Mpa = O=C(O)CCS

For the molecule `N=C(N)NCCCC[C@@H]1NC(=O)CCSSC[C@@H](C(N)=O)NC(=O)[C@@H]2CCCN2C(=O)[C@H](Cc2c[nH]c3ccccc23)NC(=O)[C@H](CC(=O)O)NC(=O)CNC1=O` [Eptifibatide] ([Mpa][hArg]GDWPC-NH2; disulfide 1-7), the “fibrin signal (image analysis)” value in the series with fibrin (Eptifibatide 2 ug/ml, samples treated with TNF-α, n=4) is “still detectable”. In addition, in the series on platelets (adding Eptifibatide, n=4 donors (FIG. 18E)), the “effects of pro-thrombotic conditions (TNF-α, sCollagen) on platelet coverage and fibrin deposition” value is “suppressed”.

Consider `O=C(O)CC(O)(CC(=O)O)C(=O)O` [sodium citrate], for which the “state of blood collected at the end of each experiment” value with re-calcified blood is reported as “soluble (not clotted)”.

As to TNF-α, in the series on fibrin (setting [3]), the fibrin signal intensity entry is recorded as “increased”. In addition, in the series on ICAM1, the “expression of ICAM1 in the endothelium compared to the control” value is given as “increased expression”. The “levels of TAT” value in series [1] is given as “significantly increased; also recorded: elevated”. Further, the “areas of platelet coverage” value in the series with platelets (setting [3]) is on record as “increased”.

Consider “hu5C8: humanized monoclonal IgG1 antibody against CD40L (anti-CD154)”, for which the “fibrin deposition on the endothelium compared to untreated blood” value with fibrin is “no significant treatment-related effects”. Also, the “platelet aggregate formation compared to untreated blood” value with platelets is reported as “no significant treatment-related effects”.

“sCD40L: soluble CD40 ligand; recombinant human sCD40 Ligand”: the “fibrin deposition on the endothelium compared to untreated blood” value in the series with fibrin is listed as “no significant treatment-related effects”. In addition, the “platelet aggregate formation compared to untreated blood” value with platelets is given as “no significant treatment-related effects”. Also, in the series with platelets (sCD40L alone, Example 5), the “increase in platelet coverage over untreated control, some donors” value was “about 2 fold” and the “mean increase in platelet coverage compared to controls” value is “not statistically significant”.

B1: hu5C8 (IgG2σ): IgG2σ variant of hu5C8 with engineered Fc region that eliminates affinity for FcγRIIa (antibody, chains of the INN, looked up, V domains shown)
VH: QVQLVQSGAEVVKPGASVKLSCKASGYIFTSYYMYWVKQAPGQGLEWIGEINPSNGDTNFNEKFKSKATLTVDKSASTAYMELSSLRSEDTAVYYCTRSDGRNDMDSWGQGTLVTVSS
VL: DIVLTQSPATLSVSPGERATISCRASQRVSSSTYSYMHWYQQKPGQPPKLLIKYASNLESGVPARFSGSGSGTDFTLTISSVEPEDFATYYCQHSWEIPPTFGGGTKLEIK
modifications: IgG2σ engineered Fc lacking FcγRIIa binding
For the molecule B1, the figures for the “hu5C8-mediated thrombosis on-chip (platelet coverage, fibrin deposition, TAT)” value in series [2], in series [2] (listed as IgG2σ) and in series [2] (listed as hu5C8-IgG2σ) were “did not show signs of thrombosis”, “suppressed” and “not detected”, respectively.
